Assay results as given in patent EP0422215B1, “ANTIBACTERIAL AND AN[…]” (THE ROCKEFELLER UNIVERSITY, priority 1989, dated 1990).
Where no end group is shown, it is not given here.

Assays:
Format in all cases: cell-based
E. coli D21 = settings: thin agarose plates, overnight incubation at 30°C
Procedure: (§1) The products of the invention were tested for activity against a variety of test organisms selected to represent a number of different types of pathogens some of them known to be particularly virulent by the inhibition zone assay of Hoffmann et al. (1981) Insect Biochem. 11 537-548. Thin agar or agarose plates (8.5 cm diameter) were prepared with 6 ml of rich medium containing 100 µg/ml of streptomycin and 2 x 10^5 viable cells of a test organism resistant to streptomycin. Wells of […] were punched in the plates and 3 µl of serially diluted samples were placed in the wells. The diameters of the zones of inhibition around the wells were measured after overnight incubation at 30° or 37°C. For each peptide the squares of the zone diameters were plotted against the logarithm of the concentration, and from the slopes and intercepts the lethal concentrations were calculated as described by Hultmark (1983) EMBO J. 2, 571-76 or Hultmark et al. (1982) Eur. J. Biochem. 127 207-217.
(§2) Novel peptides CA(1-8)M(1-18), CA(1-9)M(1-17), CB(1-13)M(1-13), CA(1-17)M(1-9), CA(1-18)M(1-8), M(1-13)CA(1-22) and M(1-13)CA(1-13) were prepared as described above (see Examples 1-6). These novel peptides and CA, CB, and M were tested for activity against a variety of organisms selected to represent a number of different types of pathogens, some of them known to be particularly virulent, by the inhibition zone assay of Hoffmann et al. (1981), Insect Biochem. 11 537-48. As in Examples 1-6, thin agarose plates were prepared with the respective organisms. The diameters of the zones of inhibition were measured after overnight incubation at 30°C. The lethal concentrations were determined as described above (see Examples 1-6; Hultmark et al. articles cited thereat).

S. aureus Cowan I = settings: thin agarose plates, 30°C, * indicates flat concentration dependence
Procedure: as §1, §2

P. aeruginosa OT97 = settings: thin agarose plates, overnight incubation at 30°C
Procedure: as §1, §2

S. pyogenes = settings: thin agarose plates, overnight incubation at 30°C
Procedure: as §1, §2

[1] = tested on: Plasmodium falciparum strain F32 (Tanzania); test: inhibition of reinvasion of human red cells by blood stream forms of the malaria parasite; settings: result in words, read from Figure 1
Procedure: The blood stream forms of the malaria parasite Plasmodium falciparum, primarily late trophozoites and early schizonts, were assayed by recording the inhibition of the reinvasion of human red cells by the method of Wahlin, B., et al, (1984) Proc. Natl. Acad. Sci. USA 81, 7912-16. Quadruplicate microcultures of strain F32 (Tanzania) were incubated for 20 hrs at 37°C in a complete tissue culture medium, with or without different concentrations of the peptides to be assayed. After acridine orange staining, the percentage of newly infected red cells was scored in a fluorescence microscope. For each culture 40,000 red cells were analysed for parasitic infection. Duplicate assays were run for CA(1-13)M(1-13).

B. subtilis Bsll = settings: overnight incubation at 30°C; for LETHAL CONCENTRATION Bsll + ME: B. subtilis, plates prepared with medium E; for LETHAL CONCENTRATION Bsll: Bsll = B. subtilis, thin agarose plates
Procedure: as §1, §2

Sheep Red Cells = test: lysis of sheep red blood cells (lysis assay or inhibition zone plate assay with SRC); settings: SRC = Sheep Red Cells; ? indicates turbid zone (melittin gives clear zone)
Procedure: These values were obtained by either the lysis assay normally used for melittin or by an adaptation of the antibacterial inhibition zone assay of the above-cited Hultmark et al. articles to plates with sheep red cells (SRC). With respect to the latter, sterile agarose plates contained 6 ml of medium with 1% agarose, 0.9% NaCl and 10% SRC suspended in Alsevers solution. A dilution series of peptide was applied in 3mm wells each loaded with 3 µl of the respective samples. The plates were incubated at 30°C for 24 h, the zones were recorded and LC values calculated as described in the Hultmark et al. articles. Clear zones were recorded after a few hours of incubation and the use of such data gave an LC value of the same order as readings after 24 h. This plate assay is faster and more convenient than the lysis assay normally used for melittin.

## H-KWKVFKKIEKMGRNIRNGIVKAGPAIAVLGEAKAL-NH2 [CB(1-35), reference compound]
E. coli D21
  LETHAL CONCENTRATION D21: 0.3 µM
S. aureus Cowan I
  LETHAL CONCENTRATION Staph: >200 µM
P. aeruginosa OT97
  LETHAL CONCENTRATION OT97: 1 µM
S. pyogenes
  LETHAL CONCENTRATION Strep: 12 µM
[1]
  activity against Plasmodium falciparum (inhibition of reinvasion, Figure 1): about as potent as Mag

## CC[C@H](C)[C@H](NC(=O)[C@H](CC(C)C)NC(=O)[C@H](C)NC(=O)[C@@H]1CCCN1C(=O)[C@H](CC(C)C)NC(=O)CNC(=O)[C@@H](NC(=O)[C@@H](NC(=O)[C@H](CC(C)C)NC(=O)[C@@H](NC(=O)[C@H](CCCCN)NC(=O)[C@H](CC(C)C)NC(=O)[C@@H](NC(=O)[C@H](C)NC(=O)CNC(=O)[C@@H](NC(=O)CNC(=O)[C@H](CCC(=O)O)NC(=O)[C@@H](NC(=O)[C@H](CCCCN)NC(=O)[C@H](CCCCN)NC(=O)[C@H](Cc1ccccc1)NC(=O)[C@H](CC(C)C)NC(=O)[C@H](CCCCN)NC(=O)[C@H](Cc1c[nH]c2ccccc12)NC(=O)[C@@H](N)CCCCN)[C@@H](C)CC)[C@@H](C)CC)C(C)C)C(C)C)[C@@H](C)O)[C@@H](C)O)C(N)=O [CA(1-9)M(1-17)]
E. coli D21
  LETHAL CONCENTRATION D21: 0.3 µM
S. aureus Cowan I
  LETHAL CONCENTRATION Staph: 6 µM
P. aeruginosa OT97
  LETHAL CONCENTRATION OT97: 1 µM
S. pyogenes
  LETHAL CONCENTRATION Strep: 0.3 µM
B. subtilis Bsll
  LETHAL CONCENTRATION Bsll + ME: 0.9 µM
  LETHAL CONCENTRATION Bsll: 0.7 µM
Sheep Red Cells
  LETHAL CONCENTRATION SRC: >600 µM

## H-KWKLFKKIEKVGQNIRDGIIKAGPAVAVVGQATQIAK-NH2 [CA(1-37), reference compound]
E. coli D21
  LETHAL CONCENTRATION D21: 0.2 µM
S. aureus Cowan I
  LETHAL CONCENTRATION Staph: >200 µM
P. aeruginosa OT97
  LETHAL CONCENTRATION OT97: 2 µM
S. pyogenes
  LETHAL CONCENTRATION Strep: 4 µM
B. subtilis Bsll
  LETHAL CONCENTRATION Bsll + ME: 200 µM
  LETHAL CONCENTRATION Bsll: 4 µM
Sheep Red Cells
  LETHAL CONCENTRATION SRC: >200 µM
[1]
  activity against Plasmodium falciparum (inhibition of reinvasion, Figure 1): only negligible activity

## CC[C@H](C)[C@H](NC(=O)CNC(=O)[C@H](CCCNC(=N)N)NC(=O)CNC(=O)[C@H](CCSC)NC(=O)[C@H](CCCCN)NC(=O)[C@H](CCC(=O)O)NC(=O)[C@@H](NC(=O)[C@H](CCCCN)NC(=O)[C@H](CCCCN)NC(=O)[C@H](Cc1ccccc1)NC(=O)[C@@H](NC(=O)[C@H](CCCCN)NC(=O)[C@H](Cc1c[nH]c2ccccc12)NC(=O)[C@@H](N)CCCCN)C(C)C)[C@@H](C)CC)C(=O)NCC(=O)N[C@@H](C)C(=O)N[C@H](C(=O)N[C@@H](CC(C)C)C(=O)N[C@@H](CCCCN)C(=O)N[C@H](C(=O)N[C@@H](CC(C)C)C(=O)N[C@H](C(=O)N[C@H](C(=O)NCC(=O)N[C@@H](CC(C)C)C(N)=O)[C@@H](C)O)[C@@H](C)O)C(C)C)C(C)C [CB(1-13)M(1-13)]
E. coli D21
  LETHAL CONCENTRATION D21: 0.3 µM
S. aureus Cowan I
  LETHAL CONCENTRATION Staph: 4 µM
P. aeruginosa OT97
  LETHAL CONCENTRATION OT97: 1 µM
S. pyogenes
  LETHAL CONCENTRATION Strep: 1 µM
B. subtilis Bsll
  LETHAL CONCENTRATION Bsll + ME: 0.4 µM
  LETHAL CONCENTRATION Bsll: 0.4 µM
Sheep Red Cells
  LETHAL CONCENTRATION SRC: >400 µM

## KWKLFKKIEKVGQNIRDGIGAVLKVL-NH2 [CA(1-17)M(1-9)]
E. coli D21
  LETHAL CONCENTRATION D21: 0.5 µM
S. aureus Cowan I
  LETHAL CONCENTRATION Staph: 4 µM
P. aeruginosa OT97
  LETHAL CONCENTRATION OT97: 5 µM
S. pyogenes
  LETHAL CONCENTRATION Strep: 0.2 µM
B. subtilis Bsll
  LETHAL CONCENTRATION Bsll + ME: 1 µM
  LETHAL CONCENTRATION Bsll: 0.5 µM
Sheep Red Cells
  LETHAL CONCENTRATION SRC: >600 µM

## CC[C@H](C)[C@H](NC(=O)CN)C(=O)NCC(=O)N[C@@H](C)C(=O)N[C@H](C(=O)N[C@@H](CC(C)C)C(=O)N[C@@H](CCCCN)C(=O)N[C@H](C(=O)N[C@@H](CC(C)C)C(=O)N[C@H](C(=O)N[C@H](C(=O)NCC(=O)N[C@@H](CC(C)C)C(=O)N1CCC[C@H]1C(=O)N[C@@H](C)C(=O)N[C@@H](CC(C)C)C(=O)N[C@H](C(=O)N[C@@H](CO)C(=O)N[C@@H](Cc1c[nH]c2ccccc12)C(=O)N[C@H](C(=O)N[C@@H](CCCCN)C(=O)N[C@@H](CCCNC(=N)N)C(=O)N[C@@H](CCCCN)C(=O)N[C@@H](CCCNC(=N)N)C(=O)N[C@@H](CCC(N)=O)C(=O)N[C@@H](CCC(N)=O)C(N)=O)[C@@H](C)CC)[C@@H](C)CC)[C@@H](C)O)[C@@H](C)O)C(C)C)C(C)C [M(1-26), reference compound]
E. coli D21
  LETHAL CONCENTRATION D21: 0.8 µM
S. aureus Cowan I
  LETHAL CONCENTRATION Staph: 0.2 µM
P. aeruginosa OT97
  LETHAL CONCENTRATION OT97: 3 µM
S. pyogenes
  LETHAL CONCENTRATION Strep: 0.5 µM
B. subtilis Bsll
  LETHAL CONCENTRATION Bsll + ME: 0.3 µM
  LETHAL CONCENTRATION Bsll: 0.2 µM
Sheep Red Cells
  LETHAL CONCENTRATION SRC: 4 to 8 µM

## KWKLFKKIEKVGQNIRDGGIGAVLKV-NH2 [CA(1-18)M(1-8)]
E. coli D21
  LETHAL CONCENTRATION D21: 1 µM
S. aureus Cowan I
  LETHAL CONCENTRATION Staph: >600 µM
P. aeruginosa OT97
  LETHAL CONCENTRATION OT97: 15 µM
S. pyogenes
  LETHAL CONCENTRATION Strep: 3 µM
B. subtilis Bsll
  LETHAL CONCENTRATION Bsll + ME: 20 µM
  LETHAL CONCENTRATION Bsll: 4 µM
Sheep Red Cells
  LETHAL CONCENTRATION SRC: >600 µM
